Source: patent US7728128B2, “Dibenzo[c,h][1,5]naphthyridines and their use as DNA probes” (Institut National de la Sante et de la Recherche Medicate …, priority 2006, dated 2010)

Tests used:
CT DNA = experiment: viscometry (hydrodynamic studies) of CT DNA solutions; type: binding, calf
Description: Calf thymus (CT) DNA was dissolved in 50 mM Na-phosphate buffer, pH 7.2, to a concentration of 0.1 or 0.5 mM relative to base pairs as described in the legend for FIGS. 3A and B. DNA solution was allowed to run through a custom-made capillary viscometer and the time necessary for the meniscus to pass a certain distance was measured using a stopwatch. All experiments were performed at 23° C. Viscosity values were calculated using the equation: η=(t−t0)/t0, where t is the flow time of DNA solution (with or without dye), and t0 is the flow time of Na-phosphate buffer alone. For each control and DNA solutions with dyes flow times were measured three to five times. Viscosity of DNA solutions with dyes were calculated as (η/η0)^1/3, where η0 and η are relative viscosities of the CT DNA solution in the absence and presence of the dye, respectively. This calculation stems from the relationship which exists between the relative solution viscosity and the relative contour length (L/L0): L/L0=(η/η0)^1/3, where L stands for the apparent molecular length (Muller, W. et al., 1968, J Mol Biol, 35, 251-290). Average viscosity values and standard error of the mean (SEM) were determined using (η/η0)^1/3 values calculated for each time flow measurement.
DNA-binding dyes interact with dsDNA by intercalation or external binding, or both. External binding most often involves the minor groove of DNA (Kopka et al.; Pjura, P. E., et al., 1987, J Mol Biol, 197, 257-271). Intercalation occurs when a ligand inserts itself between the opposite strands of DNA. In order to determine the mechanism of compound I binding to dsDNA, the inventors performed hydrodynamic studies. This approach is based on the observation that intercalating molecules increase the length of DNA fragments and, consequently, enhance the viscosity of DNA solutions (Muller W. et al.; Suh, D. et al., 1995, Bioorg Med Chem, 3, 723-728). For this experiment, compound I has been compared to the known DNA intercalator ethidium bromide and to the external minor groove binder Hoechst 33258. CT DNA at 0.5 mM was mixed with drugs at 0.1 mM concentration (0.2 dye/bp ratio) and used for viscometry measurements.
The inventors then wondered whether the increase in viscosity is equally matched by the increase in fluorescence intensity. To answer this question, CT DNA at 0.1 mM (bp) was mixed with increasing amounts of compound I and viscosity measurements were performed as above. The viscosity of the DNA/compound I solutions increased up to a dye/bp ratio 1 (FIG. 3B). To correlate the increase in viscosity with fluorescence, the inventors measured fluorescence intensities at 484 nm of the compound I/DNA solutions used for the viscosity measurements.

[1] = test system: Methanol-fixed primary human fibroblasts; experiment: nuclear fluorescence in fixed cells under continuous illumination; type: cell-based
Description: Primary human skin fibroblasts were grown on poly-D-lysine-coated glass coverslips and fixed in cold (−20° C.) anhydrous methanol for 15 min. Samples were re-hydrated in PBS (150 mM NaCl, 20 mM Na-phosphate, pH 7.2), rinsed with 10% PBS (diluted with water) and stained with 120 μM compound I in 10% PBS for 15 min at room temperature in the dark. Samples were mounted, without washing, using the FluorSave™ mounting medium (Calbiochem) or Mowiol and analysed within 3 hours. For image acquisition (FIG. 5B,D) cells were illuminated continuously (open shutter) for 30 min using an Omega filter set XF100-2 (see above). […] Fluorescence of each region at the last time point was taken as 100% and fluorescence intensities at the same region at previous time points (frames) were calculated using Microsoft Excel software.
To quantify this effect, live mouse fibroblasts were incubated in the presence of 5 μM compound I and time-lapse video microscopy was used to film the cells. Nuclear fluorescence develops slowly in the nuclei of cells treated with compound I and illuminated continuously using a standard Alexa488/FITC filter set (475AF40, 535AF45) (FIG. 5A). […] To test this possibility, the inventors stained nuclei of fixed cells with compound I and measured nuclear fluorescence during a continuous 30 min illumination. […]

stability in DMSO = type: physicochemical
Description: Stability of compound I: When stored in the dark in anhydrous DMSO at −25° C., compound I is stable for periods up to 3 years (LC-MS).

[2] = test system: primary human fibroblasts; experiment: nuclear fluorescence compared with cyclin A immunofluorescence (DNA quantification); type: cell-based; details: methanol-fixed cells
From the text: Such a double staining carried the risk of a possible competition for binding sites and/or unpredictable effects on fluorescence. Therefore, the inventors decided to compare the integrated total fluorescence of compound I-stained nuclei in fixed cells with a known cell cycle protein marker. The inventors fixed primary human fibroblasts with methanol, performed indirect immunofluorescence with anti-cyclin A antibodies, followed by Alexa 568-labelled secondary antibodies and counterstained nuclei with compound I. Cyclin A accumulates in cells beginning at the S phase and throughout the G2 cell cycle phase, and unlike cyclin B, is practically all nuclear (rev. in Pines, J. et al., 1992, Ciba Found Symp, 170, 187-196; discussion 196-204.). […] Moreover, the inventors observed a direct correlation of the compound I fluorescence with that of cyclin A in cyclin A-positive cells (FIG. 6B). […] This correlates well with 2N and 4N DNA content expected to be found in G1 and G2 cells, respectively.

COc1ccc2c(c1)c(C)nc1c3ccc(OC)cc3c(NCCCN(C)C)nc21 [Compound I, N′-(2,8-dimethoxy-12-methyl-dibenzo[c,h][1,5]naphthyridin-6-yl)-N,N-dimethyl-propane-1,3-diamine]
dye/bp ratio up to which viscosity increased (CT DNA; CT DNA 0.1 mM (bp)): ≤ 1 | dye/bp ratio of maximal fluorescence intensity (CT DNA; CT DNA 0.1 mM (bp), 484 nm): 0.2 | effect on viscosity of DNA solution (CT DNA; CT DNA 0.5 mM, drug 0.1 mM (0.2 dye/bp ratio)): increasing the viscosity of the DNA solution | average pixel values in a representative nucleus ([1]; plane (1), start of 30 min illumination): 512 | average pixel values in a representative nucleus ([1]; plane (1800), end of 30 min illumination): 1434 | stability, period stable (stability in DMSO; DMSO at 4° C. in the dark): stable for at least one year | stability, period stable (stability in DMSO; DMSO solution, ambient temperature, dark): at least 48 hours | stability, period stable (stability in DMSO; anhydrous DMSO at −25° C., dark (LC-MS)): up to 3 years | dye fluorescence of strongly cyclin A-positive nuclei relative to cyclin A-negative nuclei [2]: approximately twice as much
